Read-outs that look alike come from different tables or passages of the source.
Tests used:
hCA IX = molecular target: T1, hCA IX (Homo sapiens, UniProt Q16790); assay: Stopped-flow CO2 hydration carbonic anhydrase assay, hCA IX; type: biochemical; conditions: for Ki: stopped-flow CO2 hydration, 15 min preincubation, pH 7.5; for times more potent than compound 1 towards hCA IX: ratio of Ki versus compound 1
T1 construct: made in house

hCA XII = molecular target: T2, hCA XII (Homo sapiens, UniProt O43570); assay: Stopped-flow CO2 hydration carbonic anhydrase assay, hCA XII; type: biochemical; conditions: for Ki: stopped-flow CO2 hydration, 15 min preincubation, pH 7.5; for hCA XII/hCA IX (selectivity ratio of Ki): times more selective towards hCA XII than hCA IX; for times more potent than compound 1 towards hCA XII: ratio of Ki versus compound 1
T2 construct: made in house

[1] = Cytotoxicity assay (MTT), HGF; conditions: human, normal gingival fibroblasts (HGF)
[2] = Cytotoxicity assay (MTT), HPC; conditions: human, normal pulp cells (HPC)
[3] = Cytotoxicity assay (MTT), HPLF; conditions: human, normal periodontal ligament fibroblasts (HPLF)
[4] = tested on: HSC-2 human oral squamous cell carcinoma cell line (tongue); assay: Cytotoxicity assay (MTT), HSC-2; conditions: for CC50: Homo sapiens, HSC-2, 48 h, read-out: CC50 HSC-2; for SI (HSC-2): average CC50 of nonmalignant cells / CC50 towards HSC-2
[5] = tested on: HSC-3 human oral squamous cell carcinoma cell line (tongue); assay: Cytotoxicity assay (MTT), HSC-3; conditions: for CC50: Homo sapiens, HSC-3, 48 h, read-out: CC50 HSC-3; for SI (HSC-3): average CC50 of nonmalignant cells / CC50 towards HSC-3
[6] = tested on: HSC-4 human oral squamous cell carcinoma cell line (tongue); assay: Cytotoxicity assay (MTT), HSC-4; conditions: for CC50: Homo sapiens, HSC-4, 48 h, read-out: CC50 HSC-4; for SI (HSC-4): average CC50 of nonmalignant cells / CC50 towards HSC-4
[7] = tested on: Ca9–22 human oral squamous cell carcinoma cell line (gingiva); assay: Cytotoxicity assay (MTT), Ca9-22; conditions: for TS (C/A): CC50 HGF / CC50 Ca9–22 (same tissue origin, gingiva); for CC50: Homo sapiens, Ca9-22, 48 h, read-out: CC50 Ca9–22 (A); for SI (Ca9–22): average CC50 of nonmalignant cells / CC50 towards Ca9–22
[8] = Cytotoxicity assay (MTT), normal oral cells (mean); conditions: human, normal oral cells HGF, HPLF, HPC (mean of the three)
[9] = tested on: Human oral squamous cell carcinoma cell lines (Ca9–22, HSC-2, HSC-3, HSC-4); assay: Cytotoxicity assay (MTT), all four OSCC lines (mean, selectivity); conditions: for CC50: Homo sapiens; for TS (D/B): mean CC50 against normal cells / mean CC50 against cancer cells; for Mean SI: mean SI over four OSCC cell lines
[10] = read-out: CC50 Mean (B), human oral squamous cell carcinoma cell lines

T2 sequence (O43570 25-354): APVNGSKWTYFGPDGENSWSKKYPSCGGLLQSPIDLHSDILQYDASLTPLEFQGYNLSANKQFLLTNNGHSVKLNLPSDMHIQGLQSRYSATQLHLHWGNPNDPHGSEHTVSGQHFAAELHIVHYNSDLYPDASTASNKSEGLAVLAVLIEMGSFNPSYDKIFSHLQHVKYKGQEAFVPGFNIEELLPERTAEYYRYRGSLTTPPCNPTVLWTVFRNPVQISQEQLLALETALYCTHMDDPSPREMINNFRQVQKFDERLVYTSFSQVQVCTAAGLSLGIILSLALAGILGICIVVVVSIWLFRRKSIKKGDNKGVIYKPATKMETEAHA

Compound	Ki (hCA IX) [µM]	Ki (hCA XII) [µM]	hCA XII/hCA IX (selectivity ratio of Ki) (hCA XII)	times more potent than compound 1 towards hCA IX (hCA IX)	CC50 at 48 h [1] [µM]	CC50 at 48 h [2] [µM]	CC50 at 48 h [3] [µM]	CC50 [4] [µM]	SI (HSC-2) [4]	CC50 [5] [µM]	SI (HSC-3) [5]	CC50 [6] [µM]	SI (HSC-4) [6]	TS (C/A) [7]	CC50 [7] [µM]	SI (Ca9–22) [7]	CC50 at 48 h [8] [µM]	CC50 [9, 10] [µM]	TS (D/B) [9]	Mean SI [9]	further results
COc1ccc(C2CC(c3ccc(O)cc3)=NN2c2ccc(S(N)(=O)=O)cc2)cc1 (stereo not shown) [Compound 3, 4-[3-(4-Hydroxyphenyl)-5-(4-methoxyphenyl)-4,5-dihydro-pyrazol-1-yl]benzenesulfonamide]	0.0931	0.0336	2.8		108	167	39.3	95.3	1.1	71	1.5	88.3	1.2	2.0	53.3	2.0	105	77	1.4	1.4	times increased inhibition potential versus compound 2 towards hCA IX (hCA IX; ratio of Ki versus compound 2): 1.1; times increased inhibition potential versus compound 2 towards hCA XII (hCA XII; ratio of Ki versus compound 2): 2.8
O=c1[nH]cc(F)c(=O)[nH]1 [Compound 5-FU, 5-Fluorouracil, reference compound]					> 1000	> 1000	> 1000	13	>76.9	16	>62.5	13	>76.9	>34.5	29	>34.5	> 1000	17.8	>56.2	>62.7	CC50 ([9]; read-out: CC50 range towards cancer cell lines): 13 to 29 µM
NS(=O)(=O)c1ccc(N2N=C(c3ccc(O)cc3)CC2c2cccs2)cc1 (stereo not shown) [Compound 9, 4-[3-(4-Hydroxyphenyl)-5-(thiophen-2-yl)-4,5-dihydro-pyrazol-1-yl]benzenesulfonamide]			8.6	17.3	166	173	26.7	67	1.8	87.3	1.4	93.7	1.3	1.7	99.3	1.2	122	86.8	1.4	1.4	times more potent than compound 1 towards hCA XII (hCA XII): 11.1
NS(=O)(=O)c1ccc(N2N=C(c3ccc(O)cc3)CC2c2ccccc2)cc1 (stereo not shown) [Compound 1, 4-[3-(4-Hydroxyphenyl)-5-phenyl-4,5-dihydro-pyrazol-1-yl]benzenesulfonamide]	0.923	0.0689	13.4		133	161	59.7	94.7	1.2	81	1.5	83.7	1.4	1.6	82	1.4	118	85.3	1.4	1.4	
Cc1ccc(C2CC(c3ccc(O)cc3)=NN2c2ccc(S(N)(=O)=O)cc2)cc1 (stereo not shown) [Compound 2, 4-[3-(4-Hydroxyphenyl)-5-p-tolyl-4,5-dihydro-pyrazol-1-yl]benzenesulfonamide]	0.1	0.095			99.3	150	42.3	95.3	1.0	67.3	1.4	70.3	1.4	1.7	57	1.7	97.2	72.5	1.3	1.4	
NS(=O)(=O)c1ccc(N2N=C(c3ccc(O)cc3)CC2c2ccc(Cl)cc2)cc1 (stereo not shown) [Compound 4, 4-[5-(4-Chlorophenyl)-3-(4-hydroxyphenyl)-4,5-dihydro-pyrazol-1-yl]benzenesulfonamide]	0.0977	0.0388	2.5		89	144	29.3	81.7	1.1	57	1.5	61	1.4	2.2	39.7	2.2	87.6	59.8	1.5	1.6	

Further molecules by falling Ki (hCA IX), results first:

Ki (hCA IX) [µM]	Ki (hCA XII) [µM]	hCA XII/hCA IX (selectivity ratio of Ki) (hCA XII)	times more potent than compound 1 towards hCA IX (hCA IX)	Compound	CC50 at 48 h [1] [µM]	CC50 at 48 h [2] [µM]	CC50 at 48 h [3] [µM]	CC50 [4] [µM]	SI (HSC-2) [4]	CC50 [5] [µM]	SI (HSC-3) [5]	CC50 [6] [µM]	SI (HSC-4) [6]	TS (C/A) [7]	CC50 [7] [µM]	SI (Ca9–22) [7]	CC50 at 48 h [8] [µM]	CC50 [9, 10] [µM]	TS (D/B) [9]	Mean SI [9]	further results
0.0857	0.0092	9.3	10.8	NS(=O)(=O)c1ccc(N2N=C(c3ccc(O)cc3)CC2c2ccc(Cl)cc2Cl)cc1 (stereo not shown) [Compound 5, 4-[5-(2,4-Dichlorophenyl)-3-(4-hydroxyphenyl)-4,5-dihydro-pyrazol-1-yl]benzenesulfonamide]	63	131	34.7	82.3	0.9	76	1.0	54	1.4	1.4	44.3	1.7	76.2	64.2	1.2	1.3	times more potent than compound 1 towards hCA XII (hCA XII): 7.5
0.0841	0.0086	9.8		NS(=O)(=O)c1ccc(N2N=C(c3ccc(O)cc3)CC2c2ccc(F)cc2)cc1 (stereo not shown) [Compound 6, 4-[5-(4-Fluorophenyl)-3-(4-hydroxyphenyl)-4,5-dihydro-pyrazol-1-yl]benzenesulfonamide]	64.7	155	33	84.7	1.0	78	1.1	62.3	1.4	1.0	61.7	1.4	84.2	71.7	1.2	1.2	
0.0662	0.0076	8.7		NS(=O)(=O)c1ccc(N2N=C(c3ccc(O)cc3)CC2c2ccc(Br)cc2)cc1 (stereo not shown) [Compound 7, 4-[5-(4-Bromophenyl)-3-(4-hydroxyphenyl)-4,5-dihydro-pyrazol-1-yl]benzenesulfonamide]	52	149	34.3	85	0.9	70.3	1.1	61.7	1.3	0.9	55.7	1.4	78.6	68.2	1.2	1.2	
0.0637	0.0075	8.5	14.5	NS(=O)(=O)c1ccc(N2N=C(c3ccc(O)cc3)CC2c2ccc([N+](=O)[O-])cc2)cc1 (stereo not shown) [Compound 8, 4-[3-(4-Hydroxyphenyl)-5-(4-nitrophenyl)-4,5-dihydro-pyrazol-1-yl]benzenesulfonamide]	42	127	30	76	0.9	63.3	1.0	63.7	1.0	1.1	39.3	1.7	66.2	60.6	1.1	1.2	times more potent than compound 1 towards hCA XII (hCA XII): 9.2

From paper PMC6009964, “Designing, synthesis and bioactivities of 4-[3-(4-hydroxyphenyl)-5-aryl-4,5-dihydro-pyrazol-1-yl]benzenesulfonamides” (Journal of Enzyme Inhibition and Medicinal Chemistry, 2016)
